Data published in patent US11014911B2, “CDK2 inhibitors” (Pfizer Inc., priority 2019, dated 2021).

Target: CDK2/Cyclin E1 full length (Homo sapiens (Human), UniProt P24941)
Assay: CDK2/Cyclin E1 full length mobility shift assay
Format: biochemical

Row | Compound | Ki [nM]
1 | COc1cnc(CC(=O)Nc2cc([C@H]3CC[C@@H](OC(=O)NCCC(F)(F)F)C3)[nH]n2)s1 [Example 223, (1R,3S)-3-(3-{[(5-methoxy-1,3-thiazol-2-yl)acetyl]amino}-1H-pyrazol-5-yl)cyclopentyl (3,3,3-trifluoropropyl)carbamate] | 2.33
2 | O=C(Cc1ccc(F)cc1)Nc1cc([C@H]2CC[C@@H](OC(=O)NCC(F)F)C2)[nH]n1 [Example 248, (1R,3S)-3-(3-{[(4-fluorophenyl)acetyl]amino}-1H-pyrazol-5-yl)cyclopentyl (2,2-difluoroethyl)carbamate] | 2.41
3 | Cn1ncc(CC(=O)Nc2cc([C@H]3CC[C@@H](OC(=O)NC4(C)CCOC4)C3)[nH]n2)c1C(F)(F)F (single isomer, unassigned) [Example 495] | 1.79
4 | CC(CC(F)F)NC(=O)O[C@@H]1CC[C@H](c2cc(NC(=O)Cc3cnn(C)c3)n[nH]2)C1 (single isomer, unassigned) [Example 387] | 0.3
5 | CC[C@H](C)NC(=O)O[C@@H]1CC[C@H](c2cc(NC(=O)Cc3cnn(CC)n3)n[nH]2)C1 [Example 339, (1R,3S)-3-(3-{[(2-ethyl-2H-1,2,3-triazol-4-yl)acetyl]amino}-1H-pyrazol-5-yl)cyclopentyl (2S)-butan-2-ylcarbamate] | 0.66
6 | CNC(=O)O[C@@H]1CC[C@H](c2cc(NC(=O)Cc3ccc(OC)nc3)n[nH]2)C1 [Example 256, (1R,3S)-3-(3-{[(6-methoxypyridin-3-yl)acetyl]amino}-1H-pyrazol-5-yl)cyclopentyl methylcarbamate] | 2.58
7 | Cc1coc(CC(=O)Nc2cc([C@H]3CC[C@@H](OC(=O)N[C@H](C)CC(F)(F)F)C3)[nH]n2)n1 [Example 395, (1R,3S)-3-(3-{[(4-methyl-1,3-oxazol-2-yl)acetyl]amino}-1H-pyrazol-5-yl)cyclopentyl [(2R)-4,4,4-trifluorobutan-2-yl]carbamate] | 1.43
8 | CC(C)(C)CNC(=O)O[C@@H]1CC[C@H](c2cc(NC(=O)Cc3ccno3)n[nH]2)C1 [Example 418, (1R,3S)-3-{3-[(1,2-oxazol-5-ylacetyl)amino]-1H-pyrazol-5-yl}cyclopentyl (2,2-dimethylpropyl)carbamate] | 2.69
9 | COc1cc(CC(=O)Nc2cc([C@H]3CC[C@@H](OC(=O)NCC(F)F)C3)[nH]n2)ccn1 [Example 251, (1R,3S)-3-(3-{[(2-methoxypyridin-4-yl)acetyl]amino}-1H-pyrazol-5-yl)cyclopentyl (2,2-difluoroethyl)carbamate] | 1.83
10 | CC[C@H](C)NC(=O)O[C@@H]1CC[C@H](c2cc(NC(=O)Cc3ccc(C(F)(F)F)cn3)n[nH]2)C1 [Example 360, (1R,3S)-3-[3-({[5-(trifluoromethyl)pyridin-2-yl]acetyl}amino)-1H-pyrazol-5-yl]cyclopentyl (2S)-butan-2-ylcarbamate] | 1.46
11 | CC[C@H](C)NC(=O)O[C@@H]1CC[C@H](c2cc(NC(=O)Cc3cncc(C(F)(F)F)n3)n[nH]2)C1 [Example 362, (1R,3S)-3-[3-({[6-(trifluoromethyl)pyrazin-2-yl]acetyl}amino)-1H-pyrazol-5-yl]cyclopentyl (2S)-butan-2-ylcarbamate] | 0.84
12 | Cc1cc(CC(=O)Nc2cc([C@H]3CC[C@@H](OC(=O)NC(C)C)C3)[nH]n2)no1 [Example 269, (1R,3S)-3-(3-{[(5-methyl-1,2-oxazol-3-yl)acetyl]amino}-1H-pyrazol-5-yl)cyclopentyl propan-2-ylcarbamate] | 1.68
13 | CC[C@H](C)NC(=O)O[C@@H]1CC[C@H](c2cc(NC(=O)Cc3cn(CC(F)(F)F)nn3)n[nH]2)C1 [Example 366, (1R,3S)-3-[3-({[1-(2,2,2-trifluoroethyl)-1H-1,2,3-triazol-4-yl]acetyl}amino)-1H-pyrazol-5-yl]cyclopentyl (2S)-butan-2-ylcarbamate] | 1.79
14 | CC1(NC(=O)O[C@@H]2CC[C@H](c3cc(NC(=O)CC4COc5ccccc54)n[nH]3)C2)CCOC1 (single isomer, unassigned) [Example 489] | 3.71
15 | CCCNC(=O)O[C@@H]1CC[C@H](c2cc(NC(=O)Cc3cccc4ncsc34)n[nH]2)C1 [Example 196, (1R,3S)-3-{3-[(1,3-benzothiazol-7-ylacetyl)amino]-1H-pyrazol-5-yl}cyclopentyl propylcarbamate] | 1.44

Other lines, results leading:

Row | Ki [nM] | Compound
16 | 0.65 | CC(C)(C)NC(=O)O[C@@H]1CC[C@H](c2cc(NC(=O)Cc3ccc(F)cn3)n[nH]2)C1 [Example 300, (1R,3S)-3-(3-{[(5-fluoropyridin-2-yl)acetyl]amino}-1H-pyrazol-5-yl)cyclopentyl tert-butylcarbamate]
17 | 0.63 | C[C@H](NC(=O)O[C@@H]1CC[C@H](c2cc(NC(=O)Cc3cnn(C)c3)n[nH]2)C1)[C@@H](C)F [Example 380, (1R,3S)-3-(3-{[(1-methyl-1H-pyrazol-4-yl)acetyl]amino}-1H-pyrazol-5-yl)cyclopentyl [(2S,3R)-3-fluorobutan-2-yl]carbamate]
18 | 2.65 | CCC(O)CNC(=O)O[C@@H]1CC[C@H](c2cc(NC(=O)Cc3ccc(OC)cc3)n[nH]2)C1 (single isomer, unassigned) [Example 540]
19 | 1.95 | COCc1cc(C(=O)Nc2cc([C@H]3CC[C@@H](OC(=O)N[C@@H](C)COC)C3)n[nH]2)n(C)n1 [Example 521, (1R,3S)-3-[5-({[3-(methoxymethyl)-1-methyl-1H-pyrazol-5-yl]carbonyl}amino)-1H-pyrazol-3-yl]cyclopentyl [(2S)-1-methoxypropan-2-yl]carbamate]
20 | 1.04 | COc1cnc(CC(=O)Nc2cc([C@H]3CC[C@@H](OC(=O)N4[C@@H](C)C[C@@H]4C)C3)[nH]n2)cn1 [Example 610, (1R,3S)-3-(3-{[(5-methoxypyrazin-2-yl)acetyl]amino}-1H-pyrazol-5-yl)cyclopentyl (2S,4S)-2,4-dimethylazetidine-1-carboxylate]
21 | 0.69 | CC(C)(C)NC(=O)O[C@@H]1CC[C@H](c2cc(NC(=O)Cc3ccc(Cl)cn3)n[nH]2)C1 [Example 310, (1R,3S)-3-(3-{[(5-chloropyridin-2-yl)acetyl]amino}-1H-pyrazol-5-yl)cyclopentyl tert-butylcarbamate]
22 | 0.53 | CC(C)(C)NC(=O)O[C@@H]1CC[C@H](c2cc(NC(=O)Cc3cnn(CC(F)(F)F)n3)n[nH]2)C1 [Example 318, (1R,3S)-3-[3-({[2-(2,2,2-trifluoroethyl)-2H-1,2,3-triazol-4-yl]acetyl}amino)-1H-pyrazol-5-yl]cyclopentyl tert-butylcarbamate]
23 | 0.32 | COc1ccc(CC(=O)Nc2cc([C@H]3CC[C@@H](OC(=O)NC4(C)CCOC4)C3)[nH]n2)cc1 (single isomer, unassigned) [Example 483]
24 | 2.36 | Cc1ncc(CC(=O)Nc2cc([C@@H]3CC[C@H](OC(=O)NC4CCOCC4)C3)[nH]n2)s1 [Example 500, (1S,3R)-3-(3-{[(2-methyl-1,3-thiazol-5-yl)acetyl]amino}-1H-pyrazol-5-yl)cyclopentyl tetrahydro-2H-pyran-4-ylcarbamate]
25 | 4.73 | COc1ccc(CC(=O)Nc2cc([C@@H]3CC[C@H](OC(=O)N4C[C@@](C)(O)[C@@H]4C)C3)[nH]n2)cn1 [Example 626, (1S,3R)-3-(3-{[(6-methoxypyridin-3-yl)acetyl]amino}-1H-pyrazol-5-yl)cyclopentyl (2S,3R)-3-hydroxy-2,3-dimethylazetidine-1-carboxylate]
